Where a name gives a salt, the structure may show the parent alone.

This note sets out measurements from patent US11390604B2 (Hoffmann-La Roche Inc., priority 2019, dated 2022).

The subject of this assay is Acinetobacter baumannii ATCC 17961. The experiment in a line: Antimicrobial susceptibility testing: 90% growth inhibitory concentration (IC90) determination. The assay is classed as cell-based. To be noted: ATCC17961, Acinetobacter baumannii ATCC 17961, Iso-Sensitest broth, read-out: ATCC 17961 IC90. The method in brief: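 Broth microdilution in Iso-Sensitest medium, twofold series (e.g. 50 to 0.097 μM final), ~5×10^5 CFU/ml inoculum, 35±2 °C. OD600 read every 20 min over 16 h. IC90 derived from growth inhibition during logarithmic phase.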

`Cn1c(-c2cn(CC#N)nc2C(F)(F)F)cnc1C(=O)Nc1ccc(C(=O)N[C@H]2C[C@@H](N)C2)c(Cl)c1` [Example 94, N-[4-[(3-aminocyclobutyl)carbamoyl]-3-chlorophenyl]-5-[1-(cyanomethyl)-3-(trifluoromethyl)pyrazol-4-yl]-1-methylimidazole-2-carboxamide;2,2,2-trifluoroacetic acid]: the IC90 worked out at 176 nM.

As for `C[C@@H](N)C(=O)N[C@H]1C[C@@H](NC(=O)c2ccc(NC(=O)c3ncc(-c4cn(CC#N)nc4C(F)(F)F)n3C)cc2Cl)C1` [Example 95, N-[4-[[3-[[(2R)-2-aminopropanoyl]amino]cyclobutyl]carbamoyl]-3-chlorophenyl]-5-[1-(cyanomethyl)-3-(trifluoromethyl)pyrazol-4-yl]-1-methylimidazole-2-carboxamide;2,2,2-trifluoroacetic acid], the IC90 is 422 nM.

As to `Cn1c(-c2cn(CC#N)nc2C(F)(F)F)cnc1C(=O)Nc1ccc(C(=O)N[C@H]2C[C@@H](NC(=O)[C@H]3CC[C@@H](N)C3)C2)c(Cl)c1` [Example 96, N-[4-[[3-[[(1S,3R)-3-aminocyclopentanecarbonyl]amino]cyclobutyl]carbamoyl]-3-chlorophenyl]-5-[1-(cyanomethyl)-3-(trifluoromethyl)pyrazol-4-yl]-1-methylimidazole-2-carboxamide;2,2,2-trifluoroacetic acid], the IC90 worked out at 498 nM.

`Cn1c(-c2cn(C3CC3)nc2C(F)(F)F)cnc1C(=O)Nc1ccc(C(=O)N[C@H]2C[C@@H](N)C2)c(Cl)c1` [Example 97, N-[4-[(3-aminocyclobutyl)carbamoyl]-3-chlorophenyl]-5-[1-cyclopropyl-3-(trifluoromethyl)pyrazol-4-yl]-1-methylimidazole-2-carboxamide]: the concentration for an effect of 90% (IC90) came out at 595 nM.

As to `Cn1c(-c2cn(CCC(F)(F)F)nc2C(F)(F)F)cnc1C(=O)Nc1ccc(C(=O)N2CCN(C(=O)C3CCNCC3)CC2)c(Cl)c1` [Example 98, N-[3-chloro-4-[4-(piperidine-4-carbonyl)piperazine-1-carbonyl]phenyl]-1-methyl-5-[3-(trifluoromethyl)-1-(3,3,3-trifluoropropyl)pyrazol-4-yl]imidazole-2-carboxamide;hydrochloride], the IC90 was found to be 362 nM.

As for `Cn1c(-c2cn(CF)nc2C(F)(F)F)cnc1C(=O)Nc1ccc(C(=O)N2CCN(C(=O)C3CCNCC3)CC2)c(Cl)c1` [Example 99, N-[3-chloro-4-[4-(piperidine-4-carbonyl)piperazine-1-carbonyl]phenyl]-5-[1-(fluoromethyl)-3-(trifluoromethyl)pyrazol-4-yl]-1-methylimidazole-2-carboxamide;hydrochloride], the IC90 is 403 nM.

Regarding `Cn1c(-c2cn(Cc3ccn[nH]3)nc2C(F)(F)F)cnc1C(=O)Nc1ccc(C(=O)N2CCN(C(=O)C3CCNCC3)CC2)c(Cl)c1` [Example 100, N-[3-chloro-4-[4-(piperidine-4-carbonyl)piperazine-1-carbonyl]phenyl]-1-methyl-5-[1-(1H-pyrazol-5-ylmethyl)-3-(trifluoromethyl)pyrazol-4-yl]imidazole-2-carboxamide], the IC90 worked out at 1030 nM.

In the case of `Cn1c(-c2cn(CC(C)(CO)CCl)nc2C(F)(F)F)cnc1C(=O)Nc1ccc(C(=O)N2CCN(C(=O)C3CCNCC3)CC2)c(Cl)c1` (stereo not shown) [Example 101, 5-[1-[2-(chloromethyl)-3-hydroxy-2-methylpropyl]-3-(trifluoromethyl)pyrazol-4-yl]-N-[3-chloro-4-[4-(piperidine-4-carbonyl)piperazine-1-carbonyl]phenyl]-1-methylimidazole-2-carboxamide;formic acid], the IC90 was 733 nM.

On to `CC(C)n1cc(-c2cnc(C(=O)Nc3ccc(C(=O)N4CCN(C(=O)C5CCNCC5)CC4)c(Cl)c3)n2C)c(C(F)(F)F)n1` [Example 102, N-[3-chloro-4-[4-(piperidine-4-carbonyl)piperazine-1-carbonyl]phenyl]-1-methyl-5-[1-propan-2-yl-3-(trifluoromethyl)pyrazol-4-yl]imidazole-2-carboxamide;hydrochloride], for which the IC90 was determined as 448 nM.

For the molecule `Cn1c(-c2cn(C(CO)CCl)nc2C(F)(F)F)cnc1C(=O)Nc1ccc(C(=O)N2CCN(C(=O)C3CCNCC3)CC2)c(Cl)c1` (stereo not shown) [Example 103, 5-[1-(1-chloro-3-hydroxypropan-2-yl)-3-(trifluoromethyl)pyrazol-4-yl]-N-[3-chloro-4-[4-(piperidine-4-carbonyl)piperazine-1-carbonyl]phenyl]-1-methylimidazole-2-carboxamide;hydrochloride], the IC90 came out at 678 nM.

As to `Cn1c(-c2cn(CCC(C)(C)O)nc2C(F)(F)F)cnc1C(=O)Nc1ccc(C(=O)N2CCN(C(=O)C3CCNCC3)CC2)c(Cl)c1` [Example 104, N-[3-chloro-4-[4-(piperidine-4-carbonyl)piperazine-1-carbonyl]phenyl]-5-[1-(3-hydroxy-3-methylbutyl)-3-(trifluoromethyl)pyrazol-4-yl]-1-methylimidazole-2-carboxamide;hydrochloride], the IC90 worked out at 1020 nM.

Take `Cn1c(-c2cn(CC3(CO)CC(C)(Cl)C3)nc2C(F)(F)F)cnc1C(=O)Nc1ccc(C(=O)N2CCN(C(=O)C3CCNCC3)CC2)c(Cl)c1` (stereo not shown) [Example 105, 5-[1-[[3-chloro-1-(hydroxymethyl)-3-methylcyclobutyl]methyl]-3-(trifluoromethyl)pyrazol-4-yl]-N-[3-chloro-4-[4-(piperidine-4-carbonyl)piperazine-1-carbonyl]phenyl]-1-methylimidazole-2-carboxamide;hydrochloride]: the IC90 was found to be 1610 nM.

On to `Cc1nc(Cn2cc(-c3cnc(C(=O)Nc4ccc(C(=O)N5CCN(C(=O)C6CCNCC6)CC5)c(Cl)c4)n3C)c(C(F)(F)F)n2)no1` [Example 106, N-[3-chloro-4-[4-(piperidine-4-carbonyl)piperazine-1-carbonyl]phenyl]-1-methyl-5-[1-[(5-methyl-1,2,4-oxadiazol-3-yl)methyl]-3-(trifluoromethyl)pyrazol-4-yl]imidazole-2-carboxamide;hydrochloride], for which the IC90 was determined as 848 nM.

Consider `Cn1c(-c2cn(CC3(C)CSC3)nc2C(F)(F)F)cnc1C(=O)Nc1ccc(C(=O)N2CCN(C(=O)C3CCNCC3)CC2)c(Cl)c1` [Example 107, N-[3-chloro-4-[4-(piperidine-4-carbonyl)piperazine-1-carbonyl]phenyl]-1-methyl-5-[1-[(3-methylthietan-3-yl)methyl]-3-(trifluoromethyl)pyrazol-4-yl]imidazole-2-carboxamide;hydrochloride], for which the IC90 was 444 nM.

Consider `Cn1c(-c2cn(C3CC4(CC4)C3)nc2C(F)(F)F)cnc1C(=O)Nc1ccc(C(=O)N2CCN(C(=O)C3CCNCC3)CC2)c(Cl)c1` [Example 108, N-[3-chloro-4-[4-(piperidine-4-carbonyl)piperazine-1-carbonyl]phenyl]-1-methyl-5-[1-spiro[2.3]hexan-5-yl-3-(trifluoromethyl)pyrazol-4-yl]imidazole-2-carboxamide;hydrochloride], for which the IC90 came out at 248 nM.

As for `Cn1c(-c2cn(CCOC(F)F)nc2C(F)(F)F)cnc1C(=O)Nc1ccc(C(=O)N2CCN(C(=O)C3CCNCC3)CC2)c(Cl)c1` [Example 109, N-[3-chloro-4-[4-(piperidine-4-carbonyl)piperazine-1-carbonyl]phenyl]-5-[1-[2-(difluoromethoxy)ethyl]-3-(trifluoromethyl)pyrazol-4-yl]-1-methylimidazole-2-carboxamide;hydrochloride], the IC90 is 473 nM.

For orientation: IC90 means the concentration at which the effect reaches the 90% level.
